Here are results for eleven compounds from ChEMBL document CHEMBL2396549, “The discovery of BMS-457, a potent and selective CCR1 antagonist” (Bioorg Med Chem Lett, 2013).

Usually IC50 stands for the concentration that inhibits the measured activity by half. One may read the inhibition as the relative decrease from the control value, in per cent. A word on the EC20: it is the point of the concentration-response curve where the effect stands at 20%. The term bioavailability denotes dose-corrected exposure relative to a reference, in per cent. One may read the fraction unbound as free concentration divided by total concentration. As a reminder, the EC50 is the concentration at which the effect is half-maximal.

The target of data set [1] is T1, C-C chemokine receptor type 1 (Homo sapiens, UniProt P32246).
T1 sequence (P32246 whole entry): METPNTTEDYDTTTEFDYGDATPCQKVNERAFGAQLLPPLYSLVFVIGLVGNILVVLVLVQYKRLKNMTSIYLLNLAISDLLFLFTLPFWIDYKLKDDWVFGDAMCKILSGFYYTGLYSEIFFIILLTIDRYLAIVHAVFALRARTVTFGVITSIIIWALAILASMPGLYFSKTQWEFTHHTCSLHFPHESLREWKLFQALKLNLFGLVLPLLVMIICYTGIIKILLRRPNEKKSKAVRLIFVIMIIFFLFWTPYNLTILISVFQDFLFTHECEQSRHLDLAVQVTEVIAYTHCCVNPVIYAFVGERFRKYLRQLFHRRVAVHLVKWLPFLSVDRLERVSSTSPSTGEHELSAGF
Kind of data set: Binding affinity to human CCR1.

In data set [2] the target is T1, C-C chemokine receptor type 1. Kind of data set: Antagonist activity at human CCR1 assessed as inhibition of MIP1alpha-induced chemotaxis.
Data set [3] can be described thus: Antagonist activity at human CCR1 assessed as inhibition of MIP1alpha-induced chemotaxis.
The subject of data set [4] is Liver microsomes. Put plainly: Metabolic stability in human liver microsomes assessed as compound remaining. It is filed as ADME, Microsome. (In general: Liver microsomes are vesicles of endoplasmic reticulum, rich in cytochrome P450 enzymes.)
The test system of data set [5] is Liver microsomes. Kind of data set: Metabolic stability in rat liver microsomes assessed as compound remaining. It is filed as ADME, Microsome.
The species named for data set [6] is Homo sapiens. Kind of data set: Inhibition of sodium channel (unknown origin) at 10 uM.
Data set [7] can be described thus: Metabolic stability in monkey liver microsomes assessed as compound remaining. The conditions noted are these: rhesus monkey. The format is ADME, Macaca mulatta, Microsome.
In data set [8] the target is T2, Nuclear receptor subfamily 1 group I member 2 (Homo sapiens, UniProt O75469).
T2 sequence (O75469 whole entry): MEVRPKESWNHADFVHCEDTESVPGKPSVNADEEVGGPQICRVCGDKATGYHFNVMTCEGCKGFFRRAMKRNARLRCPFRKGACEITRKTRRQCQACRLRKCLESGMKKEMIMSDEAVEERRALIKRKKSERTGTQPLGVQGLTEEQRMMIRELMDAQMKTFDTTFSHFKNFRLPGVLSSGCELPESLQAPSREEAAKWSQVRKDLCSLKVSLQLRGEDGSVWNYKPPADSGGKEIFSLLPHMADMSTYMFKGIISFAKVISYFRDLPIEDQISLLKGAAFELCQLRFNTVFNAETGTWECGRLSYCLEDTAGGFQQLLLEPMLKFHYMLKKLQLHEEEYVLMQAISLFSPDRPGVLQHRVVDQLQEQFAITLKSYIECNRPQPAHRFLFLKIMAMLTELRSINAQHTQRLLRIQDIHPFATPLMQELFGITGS
Kind of data set: Induction of PXR (unknown origin). The conditions noted are these: for EC20 / EC60: human.

The species entered for data set [9] is Homo sapiens. Kind of data set: Inhibition of calcium channel (unknown origin) at 10 uM.
The test system of data set [10] is Liver. Put plainly: Metabolic stability in mouse liver microsomes assessed as compound remaining. The format is ADME, Microsome.
Data set [11] is described as follows: Oral bioavailability in cynomolgus monkey at 2 mg/kg. The conditions noted are these: in vivo. The format is ADME, organism-based, Macaca fascicularis.
Data set [12] concerns the target Cytochrome P450 3A4 (Homo sapiens, UniProt P08684). Kind of data set: Inhibition of CYP3A4 (unknown origin). It is filed as ADME.
For data set [13], the species on record is Homo sapiens. Put plainly: (§1) Inhibition of sodium channel (unknown origin).
For data set [14], the target named is T1, C-C chemokine receptor type 1. Kind of data set: Antagonist activity at CCR1 in whole blood (unknown origin) assessed as inhibition of MIP1alpha-induced upregulation of beta2-integrin CD11b.
The target of data set [15] is Cytochrome P450 2C19 (Homo sapiens, UniProt P33261). Put plainly: Inhibition of CYP2C19 (unknown origin). It is filed as ADME.
Data set [16] has as its target Cytochrome P450 2C9 (Homo sapiens, UniProt P11712). Put plainly: Inhibition of CYP2C9 (unknown origin). It is filed as ADME.
In data set [17] the target is hERG (KCNH2) (Homo sapiens, UniProt Q12809). Kind of data set: Inhibition of human ERG at 10 uM by patch clamp assay. Background: In patch-clamp work, channel activity is measured electrically.
Data set [18] addresses T3, Cytochrome P450 1A2 (Homo sapiens, UniProt P05177).
T3 sequence (P05177 whole entry): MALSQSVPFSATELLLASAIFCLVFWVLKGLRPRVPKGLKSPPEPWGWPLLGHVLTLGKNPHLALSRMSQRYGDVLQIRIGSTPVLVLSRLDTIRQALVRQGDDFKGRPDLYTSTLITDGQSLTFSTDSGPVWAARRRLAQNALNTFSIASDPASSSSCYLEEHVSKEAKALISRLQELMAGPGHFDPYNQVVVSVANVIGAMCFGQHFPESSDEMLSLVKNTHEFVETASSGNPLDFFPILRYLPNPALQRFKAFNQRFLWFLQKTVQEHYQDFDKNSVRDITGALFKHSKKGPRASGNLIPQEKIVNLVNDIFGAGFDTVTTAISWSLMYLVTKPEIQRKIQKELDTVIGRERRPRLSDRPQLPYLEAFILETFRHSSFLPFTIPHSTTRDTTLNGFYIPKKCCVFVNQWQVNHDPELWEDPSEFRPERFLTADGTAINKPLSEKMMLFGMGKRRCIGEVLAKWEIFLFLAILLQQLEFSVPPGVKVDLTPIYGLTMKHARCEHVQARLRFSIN
Kind of data set: Inhibition of CYP1A2 (unknown origin). The format is ADME.

Data set [19] is described as follows: Oral bioavailability in mouse at 9 mg/kg. It is filed as ADME, organism-based. The settings on record: in vivo.
Data set [20] deals with Voltage-gated inwardly rectifying potassium channel KCNH2 (Homo sapiens, UniProt Q12809). Put plainly: Inhibition of human ERG by patch clamp assay.
The species entered for data set [21] is Homo sapiens. Put plainly: (§2) Inhibition of calcium channel (unknown origin).
Data set [22] concerns the target T1, C-C chemokine receptor type 1. Put plainly: Antagonist activity at CCR1 in whole blood (unknown origin) assessed as inhibition of LKN1-induced upregulation of beta2-integrin CD11b.
Data set [23] can be described thus: Fraction unbound in human serum. The format is ADME, cell-free.
Data set [24] has as its target Cytochrome P450 2D6 (Homo sapiens, UniProt P10635). Kind of data set: Inhibition of CYP2D6 (unknown origin). It is filed as ADME.
A short description of data set [25]: as §1. More on the design: species or system Homo sapiens.
Data set [26] is described as follows: as §2. More on the design: species or system Homo sapiens.

Active and inactive are the calls of the source. No cut-off for these calls is given here.

Sequence of Cytochrome P450 2D6 (P10635 whole entry): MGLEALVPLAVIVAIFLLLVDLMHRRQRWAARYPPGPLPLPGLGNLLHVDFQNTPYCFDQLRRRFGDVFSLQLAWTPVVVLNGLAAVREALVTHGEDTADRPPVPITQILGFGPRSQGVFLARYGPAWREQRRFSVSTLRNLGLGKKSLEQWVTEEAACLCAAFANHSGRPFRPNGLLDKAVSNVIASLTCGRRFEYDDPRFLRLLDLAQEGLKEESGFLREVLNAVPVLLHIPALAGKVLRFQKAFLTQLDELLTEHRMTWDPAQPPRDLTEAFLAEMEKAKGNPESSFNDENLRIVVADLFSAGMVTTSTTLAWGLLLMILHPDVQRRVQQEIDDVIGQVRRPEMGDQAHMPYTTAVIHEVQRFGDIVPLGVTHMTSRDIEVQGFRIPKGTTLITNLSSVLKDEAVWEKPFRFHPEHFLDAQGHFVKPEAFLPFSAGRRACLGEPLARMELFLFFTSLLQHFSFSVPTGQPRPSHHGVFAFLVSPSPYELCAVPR
Sequence of Cytochrome P450 2C9 (P11712 whole entry): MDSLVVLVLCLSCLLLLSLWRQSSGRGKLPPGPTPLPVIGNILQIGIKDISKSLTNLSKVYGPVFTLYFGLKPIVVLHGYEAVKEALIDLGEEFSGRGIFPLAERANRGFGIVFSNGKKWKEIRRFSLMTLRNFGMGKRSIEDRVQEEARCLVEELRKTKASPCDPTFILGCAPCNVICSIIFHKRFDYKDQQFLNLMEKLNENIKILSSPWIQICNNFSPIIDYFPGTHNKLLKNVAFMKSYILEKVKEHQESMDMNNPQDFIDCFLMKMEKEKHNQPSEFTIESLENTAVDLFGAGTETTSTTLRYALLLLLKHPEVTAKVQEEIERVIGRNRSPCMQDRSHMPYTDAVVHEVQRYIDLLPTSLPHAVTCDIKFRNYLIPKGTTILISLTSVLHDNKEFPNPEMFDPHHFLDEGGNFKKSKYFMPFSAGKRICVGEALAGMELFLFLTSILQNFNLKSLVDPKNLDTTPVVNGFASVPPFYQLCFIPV
Sequence of hERG (KCNH2) (Q12809 whole entry): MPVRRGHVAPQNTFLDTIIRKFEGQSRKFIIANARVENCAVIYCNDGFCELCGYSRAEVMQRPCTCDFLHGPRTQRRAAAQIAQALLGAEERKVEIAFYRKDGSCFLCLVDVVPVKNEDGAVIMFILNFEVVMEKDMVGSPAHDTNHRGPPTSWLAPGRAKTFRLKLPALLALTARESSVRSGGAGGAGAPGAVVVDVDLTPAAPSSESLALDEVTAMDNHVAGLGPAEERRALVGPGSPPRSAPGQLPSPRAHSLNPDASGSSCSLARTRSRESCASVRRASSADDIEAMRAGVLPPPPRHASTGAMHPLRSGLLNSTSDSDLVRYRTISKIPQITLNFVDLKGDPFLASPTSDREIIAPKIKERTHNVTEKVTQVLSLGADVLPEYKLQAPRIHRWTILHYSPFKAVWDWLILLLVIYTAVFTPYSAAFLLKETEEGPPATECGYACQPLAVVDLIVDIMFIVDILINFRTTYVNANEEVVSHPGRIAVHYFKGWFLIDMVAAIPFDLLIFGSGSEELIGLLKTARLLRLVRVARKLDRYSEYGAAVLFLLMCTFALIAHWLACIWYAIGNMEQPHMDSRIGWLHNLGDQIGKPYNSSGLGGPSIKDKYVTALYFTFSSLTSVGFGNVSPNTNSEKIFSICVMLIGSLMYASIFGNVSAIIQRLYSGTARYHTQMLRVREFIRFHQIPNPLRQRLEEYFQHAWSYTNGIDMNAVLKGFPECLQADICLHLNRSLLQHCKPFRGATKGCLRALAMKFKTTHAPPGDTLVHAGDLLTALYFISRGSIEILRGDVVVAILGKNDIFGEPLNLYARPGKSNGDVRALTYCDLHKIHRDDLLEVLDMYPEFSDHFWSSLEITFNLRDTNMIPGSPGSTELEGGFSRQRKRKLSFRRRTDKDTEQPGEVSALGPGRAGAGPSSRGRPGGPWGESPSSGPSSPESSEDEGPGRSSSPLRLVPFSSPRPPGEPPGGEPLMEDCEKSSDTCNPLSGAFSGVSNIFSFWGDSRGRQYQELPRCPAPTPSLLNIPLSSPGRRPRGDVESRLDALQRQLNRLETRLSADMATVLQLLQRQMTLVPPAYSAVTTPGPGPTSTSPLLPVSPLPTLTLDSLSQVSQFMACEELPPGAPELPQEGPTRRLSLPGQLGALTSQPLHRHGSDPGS
Sequence of Voltage-gated inwardly rectifying potassium channel KCNH2 (Q12809 whole entry): as above
Sequence of Cytochrome P450 3A4 (P08684 whole entry): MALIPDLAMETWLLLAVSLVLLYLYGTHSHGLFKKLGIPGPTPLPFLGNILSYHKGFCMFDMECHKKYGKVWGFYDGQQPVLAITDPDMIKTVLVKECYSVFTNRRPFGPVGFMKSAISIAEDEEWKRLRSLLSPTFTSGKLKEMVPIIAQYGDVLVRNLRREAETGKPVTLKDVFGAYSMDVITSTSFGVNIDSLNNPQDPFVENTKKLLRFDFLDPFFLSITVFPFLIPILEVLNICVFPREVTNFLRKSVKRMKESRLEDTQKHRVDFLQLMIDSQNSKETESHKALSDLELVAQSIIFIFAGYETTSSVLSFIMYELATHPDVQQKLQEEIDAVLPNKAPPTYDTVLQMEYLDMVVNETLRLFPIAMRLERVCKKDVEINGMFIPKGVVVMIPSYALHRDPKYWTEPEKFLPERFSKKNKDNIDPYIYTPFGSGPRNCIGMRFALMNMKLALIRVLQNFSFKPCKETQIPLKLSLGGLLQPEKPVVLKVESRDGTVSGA
Sequence of Cytochrome P450 2C19 (P33261 whole entry): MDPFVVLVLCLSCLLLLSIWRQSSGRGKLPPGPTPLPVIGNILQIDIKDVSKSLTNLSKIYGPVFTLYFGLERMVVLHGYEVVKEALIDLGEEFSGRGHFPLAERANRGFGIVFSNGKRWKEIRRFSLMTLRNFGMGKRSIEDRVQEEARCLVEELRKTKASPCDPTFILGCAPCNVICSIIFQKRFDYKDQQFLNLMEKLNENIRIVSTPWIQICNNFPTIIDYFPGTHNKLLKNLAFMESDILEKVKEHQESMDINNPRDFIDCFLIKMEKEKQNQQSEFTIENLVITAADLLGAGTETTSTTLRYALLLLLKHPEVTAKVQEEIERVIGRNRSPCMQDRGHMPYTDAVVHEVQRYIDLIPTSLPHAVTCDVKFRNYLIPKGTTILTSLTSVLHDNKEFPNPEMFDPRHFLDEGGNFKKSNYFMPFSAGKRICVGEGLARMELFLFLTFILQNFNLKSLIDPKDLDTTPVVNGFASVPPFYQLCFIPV

For the compound `CC(C)[C@H](CN1CC[C@](O)(c2ccc(Cl)cc2)C(C)(C)C1)NC(=O)c1ccccc1`, the 50% inhibitory concentration (IC50) is 2240 nM in [1] and “Not Active” in data set [2].

`CC(C)[C@@H](NC(=O)c1ccccc1)C(=O)N1CCC(c2ccc(Cl)cc2)CC1`: the half-maximal inhibitory concentration (IC50) in data set [1] was 30 nM; in data set [3], 78 nM.

Consider `CC(C)[C@@H](NC(=O)[C@@H]1CC[C@H](O)C1)C(=O)N1CC[C@](O)(c2ccc(Cl)cc2)C(C)(C)C1` (mixture of isomers), for which the Stability turned out to be 43% in [4], 75% in data set [5], 22% in data set [7] and 60% in [10]. The inhibition in [6] was 5%; in [9], -4%. In data set [1], this compound gave an IC50 of 0.8 nM. In [8], the concentration for an effect of 20% (EC20) was 5300 nM. The compound further gave an EC60 in data set [8] of more than 50000 nM.

Consider `CC(C)[C@@H](NC(=O)[C@H]1CC[C@@H](O)C1)C(=O)N1CC[C@](O)(c2ccc(Cl)cc2)C(C)(C)C1` (mixture of isomers), for which the Stability in data set [4] is recorded as 69%; in data set [5], 67%; in data set [7], 21%; in [10], 65%. Besides, the results for the inhibition in data set [6] and in data set [9] were 19% and 9%, respectively. Further, the IC50 in data set [1] is 1.6 nM. The concentration for an effect of 20% (EC20) in data set [8] came out at 1800 nM. Also, the EC60 in [8] stood at 7400 nM.

Regarding `CC(C)[C@@H](NC(=O)C1CCCC1)C(=O)N1CC[C@](O)(c2ccc(Cl)cc2)C(C)(C)C1`, the Stability in data set [4] was 47%; in data set [5], 50%; in data set [7], 4%; in data set [10] it was 26%. The inhibition in data set [6] was 52%; in [9], 50%. Besides, the 50% inhibitory concentration (IC50) in data set [1] was found to be 1.4 nM. In data set [8], this compound returned an EC20 of 400 nM. The EC60 in [8] was 1400 nM.

Turning to `CC(C)[C@@H](NC(=O)[C@@H]1CC[C@@H](O)C1)C(=O)N1CC[C@](O)(c2ccc(Cl)cc2)C(C)(C)C1` (mixture of isomers), the Stability was 98% in [4], 87% in data set [5], 66% in data set [7] and 88% in data set [10]. The results for the bioavailability in data set [11] and in data set [19] were 54% and 100%, respectively. Also, the “inhibition (INH)” value in data set [12], in data set [15], in data set [16], in data set [18] and in data set [24] was “Not Active” throughout. Moreover, the inhibition result in data set [13] and in data set [21] was “inactive” each time. Also, the values for the IC50 in [14], in data set [1] and in [22] were 46 nM, 0.8 nM and 54 nM, respectively. For the same compound, the inhibition was 14% in data set [6] and 11% in data set [9]. The inhibition at 10 µM in data set [17] came to 3%. In addition, in [20], the INH was more than 80 µM. In data set [23], this compound had an unbound share (fraction unbound) of 0.16. The compound further had an EC20 in data set [8] of 41000 nM. Besides, the EC60 in [8] is more than 50000 nM.

Take `CC(C)[C@@H](NC(=O)c1cccc(C(=O)O)c1)C(=O)N1CC[C@](O)(c2ccc(Cl)cc2)C(C)(C)C1`: the Stability worked out at 100% in data set [4], 97% in data set [5], 100% in data set [7] and 100% in [10]. The inhibition in data set [6] was 3%; in data set [9] it was 0%. Further, the IC50 in [1] was 7.1 nM. The compound also had an EC20 in data set [8] of more than 50000 nM. Further, in data set [8], the EC60 was more than 50000 nM.

For the compound `CC(C)[C@@H](NC(=O)c1cccc(S(N)(=O)=O)c1)C(=O)N1CC[C@](O)(c2ccc(Cl)cc2)C(C)(C)C1`, the Stability in data set [4] is given as 96%; in data set [5] it was 100%; in data set [7], 100%; in [10], 99%. In addition, the results for the inhibition in data set [6] and in [9] were 39% and 31%, respectively. Besides, the 50% inhibitory concentration (IC50) in data set [1] worked out at 3 nM. This compound also displayed a 20% effect concentration (EC20) in data set [8] of more than 50000 nM. The EC60 in data set [8] is more than 50000 nM.

For `CC(C)[C@@H](NC(=O)[C@H]1CC[C@H](O)C1)C(=O)N1CC[C@](O)(c2ccc(Cl)cc2)C(C)(C)C1` (mixture of isomers), the Stability in data set [4] worked out at 95%; in data set [5] it was 74%; in [7] it was 59%; in [10], 90%. Moreover, the values for the inhibition in data set [6] and in data set [9] were 4% and -3%, respectively. The compound also showed a half-maximal inhibitory concentration (IC50) in data set [1] of 6.3 nM. Moreover, the EC20 in data set [8] is more than 50000 nM. Besides, the EC60 in data set [8] is more than 50000 nM.

As for `CC(C)[C@@H](NC(=O)[C@@H]1CCC[C@@H]1N)C(=O)N1CC[C@](O)(c2ccc(Cl)cc2)C(C)(C)C1`, the Stability in data set [4] is listed as 94%; in [5], 93%; in [7] it was 93%; in data set [10] it was 92%. The IC50 in [25] was 39000 nM; in data set [1], 2.2 nM; in data set [26], 21000 nM. This compound registered an EC50 in data set [8] of 8500 nM.

Turning to `CC(C)[C@@H](NC(=O)[C@@H]1CCC[C@@H]1O)C(=O)N1CC[C@](O)(c2ccc(Cl)cc2)C(C)(C)C1` (relative stereo), the Stability worked out at 33% in data set [4], 20% in [5], 1% in [7] and 49% in [10]. Further, the figures for the IC50 in data set [25], in [1] and in data set [26] were more than 80000 nM, 2.3 nM and 61000 nM, respectively. Further, in data set [8], the midpoint of the response, the EC50, lay at 1400 nM.
